Tested on: histone deacetylase (HDAC)
Assay: cellular acetylation assay (histone acetylation ELISA in PC3 cells)
Type: cell-based
Conditions: PC3 human prostate carcinoma cells, compound 1 μM, 24 h incubation, ELISA with antibodies against acetylated histone H3 or H4
Method: Therein acetylation of histones is monitored in PC3 cells. High acetylation correlates with inhibition of histone deacetylase by compounds. Cell viability is monitored in parallel to estimate the cytotoxicity of compounds.
PC3 cells, a human prostate carcinoma cell line, are seeded as 1800 cells per well of a 384-well microtiterplate in RPMI 1640 (including 5% FCS, 2 mM glutamine and pen/strep). After 48 h at 37° C. pre-diluted compounds are added to a final concentration of 1 uM. Compounds are pre-diluted in dimethyl sulfoxide (DMSO) resulting in a final concentration of DMSO of 0.5% per well.
After 24 h incubation cell viability is determined by adding cell proliferation reagent WST-1 (Roche Molecular Biochemicals). Another 60 min later the optical density (OD) is measured (450 nm versus 690 nm).
After measurement the cell layer is prepared for the ELISA reaction. Medium is aspirated and cells are fixed in ethanol at −20° C. for 60 min. After washing with PBS/Tween the blocking solution (PBS/5% FCS/Tween) is added and the cell layer is washed again. Antibodies against acetylated histone H3 or H4 (rabbit polyklonal IgG, Upstate Biotechnologie) are added at a dilution of 1:200 for 60 min at 37° C. As a second antibody goat anti rabbit IgG (H+L) humanIgG adsorbed-HRP conjugate (Dako) is used (1:2000 diluted). Cells are washed 3 times and the peroxidase substrate ABTS is allowed to react for 30–60 min at 37° C. The OD is measured at 405 nm.
The percentage of acetylation is calculated after substraction of blank O.D.s: […]

`CC(=O)Nc1ccc(C(=O)Nc2ccccc2N)cc1` [4-acetylamino-N-(2-amino-phenyl)-benzamide, reference compound] was tested. Which “cell acetylation (PC3, 1 μM) [% of control]” value did it give?
The value was 152 % of control.

How did the “cell acetylation (PC3, 1 μM) [% of control]” value turn out when `Nc1ccccc1NC(=O)c1ccc(CON=Cc2ccccc2)s1` [4–6, 5-Benzylideneaminooxymethyl-thiophene-2-carboxylic acid (2-amino-phenyl)-amide] was run?
The value was 180 % of control.

`Nc1ccccc1NC(=O)c1ccc(CON=C2Cc3ccccc3C2)s1` [4–7, 5-(Indan-2-ylideneaminooxymethyl)-thiophene-2-carboxylic acid (2-amino-phenyl)-amide] was tested. Which “cell acetylation (PC3, 1 μM) [% of control]” value did it give?
The value was 182 % of control.

How did the “cell acetylation (PC3, 1 μM) [% of control]” value turn out when `COc1ccc(C(C)=NOCc2ccc(C(=O)Nc3ccccc3N)s2)cc1OC` [4–9, 5-[1-(3,4-Dimethoxy-phenyl)-ethylideneaminooxymethyl]-thiophene-2-carboxylic acid (2-amino-phenyl)-amide] was run?
The value was 158 % of control.

`COc1ccc(C=NOCc2ccc(C(=O)Nc3ccccc3N)s2)cc1OC` [4–12, 5-(3,4-Dimethoxy-benzylideneaminooxymethyl)-thiophene-2-carboxylic acid (2-amino-phenyl)-amide] was tested. Which “cell acetylation (PC3, 1 μM) [% of control]” value did it give?
Its value is 137 % of control.

How did the “cell acetylation (PC3, 1 μM) [% of control]” value turn out when `Nc1ccccc1NC(=O)c1ccc(CON=Cc2ccc(OC(F)(F)F)cc2)s1` [4–17, 5-(4-Trifluoromethoxy-benzylideneaminooxymethyl)-thiophene-2-carboxylic acid (2-amino-phenyl)-amide] was run?
Its value is 127 % of control.

`Nc1ccccc1NC(=O)c1ccc(CON=Cc2cccnc2)s1` [4–21, 5-(Pyridin-3-ylmethyleneaminooxymethyl)-thiophene-2-carboxylic acid (2-amino-phenyl)-amide] was tested. Which “cell acetylation (PC3, 1 μM) [% of control]” value did it give?
The value was 135 % of control.

For `Nc1ccccc1NC(=O)c1ccc(CON=Cc2ccc3c(c2)OCCO3)s1` [Example 3, 5-(2,3-Dihydro-benzo[1,4]dioxin-6-ylmethyleneaminooxymethyl)-thiophene-2-carboxylic acid (2-amino-phenyl)-amide], which “cell acetylation (PC3, 1 μM) [% of control]” value is on record?
Its value is 116 % of control.

Source: patent publication US7173060B2, “Oxime derivatives and their use as pharmaceutically active agents” (Hoffmann-La Roche Inc., priority 2003, dated 2007)
